The test concerns the target GTPase KRas [G12C] (Homo sapiens, UniProt P01116, G12C). The experiment in a line: Biochemical Assay. An excerpt:
The purpose of this biochemical assay is to measure the ability of test compounds to covalently label nucleotide-loaded K-Ras isoforms. […] Analysis of raw data may be carried out using Waters MassLynx MS software, with % bound calculated from the deconvoluted protein peaks for labeled and unlabeled K-Ras.

The structures appear in SMILES notation.

Chain of GTPase KRas [G12C] (P01116 whole entry G12C, canonical isoform): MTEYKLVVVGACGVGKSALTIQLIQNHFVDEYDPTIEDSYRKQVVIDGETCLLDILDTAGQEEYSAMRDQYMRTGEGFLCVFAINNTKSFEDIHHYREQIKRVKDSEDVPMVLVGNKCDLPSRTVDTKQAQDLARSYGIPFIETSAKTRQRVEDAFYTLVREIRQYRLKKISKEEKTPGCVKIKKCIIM

Take `C=CC(=O)N1CC[C@@]2(CCN([C@H](C(=O)N[C@H]3Cc4cc(O)cc(c4)-c4ccc5c(c4)c(c(-c4ccccc4CCOC)n5CC)CC(C)(C)COC(=O)[C@@H]4CCCN(N4)C3=O)C(C)C)C2=O)C1` [US11566007, Example A68]: the IC50 – broadly, the midpoint of a concentration-inhibition curve – is “in the range around 550 nM”.

For the compound `C=CC(=O)N1CCC(C(=O)N(C)[C@H](C(=O)N[C@H]2Cc3cc(O)cc(c3)-c3ccc4c(c3)c(c(-c3ccccc3CCOC)n4CC)CC(C)(C)COC(=O)[C@@H]3CCCN(N3)C2=O)C(C)C)CC1` [US11566007, Example A14], the IC50 entry is “in the range around 550 nM”.

As to `C=CC(=O)N1CC[C@H](C(=O)N(C)[C@H](C(=O)N[C@H]2Cc3cc(O)cc(c3)-c3ccc4c(c3)c(c(-c3cccnc3COC)n4C)CC(C)(C)COC(=O)[C@@H]3CCCN(N3)C2=O)C(C)C)C1` [US11566007, Example A66], the half-inhibitory concentration (IC50) result is “in the range around 550 nM”.

Turning to `C=CC(=O)N1CC[C@H](C(=O)N(C)[C@H](C(=O)N[C@H]2Cc3cc(O)cc(c3)-c3ccc4c(c3)c(c(-c3ccc(CN5CCCC5)cc3)n4CC)CC(C)(C)COC(=O)[C@@H]3CCCN(N3)C2=O)C(C)C)C1` [US11566007, Example A10], the IC50 result was “in the range around 550 nM”.

For `C=CC(=O)N1CCC(F)(C(=O)N(C)[C@H](C(=O)N[C@H]2Cc3cc(O)cc(c3)-c3ccc4c(c3)c(c(-c3ccccc3CN(C)C)n4CC)CC(C)(C)COC(=O)[C@@H]3CCCN(N3)C2=O)C(C)C)CC1` [US11566007, Example A20], the half-inhibitory concentration (IC50) result is “in the range around 55 nM”.

For the compound `C=CC(=O)N1CC[C@H](C(=O)N(C)[C@H](C(=O)N[C@H]2Cc3cc(O)cc(c3)-c3ccc4c(c3)c(c(-c3ccc(C5CCN(C)CC5)cc3)n4CC)CC(C)(C)COC(=O)[C@@H]3CCCN(N3)C2=O)C(C)C)C1` [US11566007, Example A39], the IC50 entry is “in the range around 550 nM”.

Take `C=CC(=O)N1CC[C@H](C(=O)N(C)[C@H](C(=O)N[C@H]2Cc3cc(O)cc(c3)-c3ccc4c(c3)c(c(-c3ccccc3CCOC)n4CC)CC(C)(C)COC(=O)[C@@H]3CCCN(N3)C2=O)C2CCOCC2)C1` [US11566007, Example A6]: the 50% inhibitory concentration (IC50) result was “in the range around 550 nM”.

In the case of `C=CC(=O)N1CC[C@H](C(=O)N(C)[C@H](C(=O)N[C@H]2Cc3cc(O)cc(c3)-c3ccc4c(c3)c(c(-c3ccc(CN5CC[C@@H](O)C5)cc3)n4CC)CC(C)(C)COC(=O)[C@@H]3CCCN(N3)C2=O)C(C)C)C1` [US11566007, Example A1], the IC50 result is “in the range around 550 nM”.

For the compound `C=CC(=O)N1C[C@H](C)[C@H](C(=O)N(C)[C@H](C(=O)N[C@H]2Cc3cc(O)cc(c3)-c3ccc4c(c3)c(c(-c3ccccc3CN(C)C)n4CC)CC(C)(C)COC(=O)[C@@H]3CCCN(N3)C2=O)C2CCCC2)C1` [US11566007, Example A43], the IC50 entry was “in the range around 55 nM”.

For `C=CC(=O)N1CC[C@H](C(=O)N(C)[C@H](C(=O)N[C@H]2Cc3cc(O)cc(c3)-c3ccc4c(c3)c(c(-c3cncc(CN(C)C)c3)n4CC)CC(C)(C)COC(=O)[C@@H]3CCCN(N3)C2=O)C(C)C)C1` [US11566007, Example A73], the IC50 result was “in the range around 550 nM”.

Take `C=CC(=O)N1C[C@H](C)[C@H](C(=O)N(C)[C@H](C(=O)N[C@H]2Cc3cc(O)cc(c3)-c3ccc4c(c3)c(c(-c3cccnc3COC)n4CC)CC(C)(C)COC(=O)[C@@H]3CCCN(N3)C2=O)C(C)C)C1` [US11566007, Example A56]: the concentration for half-maximal inhibition (IC50) result was “in the range around 55 nM”.

For `C=CC(=O)N1CC2(CCN([C@H](C(=O)N[C@H]3Cc4cc(O)cc(c4)-c4ccc5c(c4)c(c(-c4ccccc4CCOC)n5CC)CC(C)(C)COC(=O)[C@@H]4CCCN(N4)C3=O)C(C)C)C2=O)C1` [US11566007, Example A31], the IC50 entry was “in the range around 55 nM”.

As to `C=CC(=O)N1CC[C@H](C(=O)N(C)[C@H](C(=O)N[C@H]2Cc3cc(O)cc(c3)-c3ccc4c(c3)c(c(-c3cccnc3COC)n4CC)CC(C)(C)COC(=O)[C@@H]3CCCN(N3)C2=O)C2CCCC2)C1` [US11566007, Example A55], the IC50 entry was “in the range around 55 nM”.

The values above are taken from BindingDB's records for patent US11566007 (Revolution Medicines, 2023).
